Measurements from patent publication US12053459B2, “CDK2 inhibitors and methods of using the same” (Cedilla Therapeutics, Inc., priority 2021, dated 2024).

Key:
[1] = system: Kuramochi cells; assay: BrdU cell proliferation assay (colorimetric ELISA), Kuramochi cells; format: cell-based; conditions: class symbols A-D
Method in brief: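 Proliferation was read as BrdU incorporation: a 1 h pulse, then fixation and peroxidase-antibody ELISA at 450 nm, with values normalized to DMSO after empty-well subtraction. Treatment lasted 4 days on Kuramochi cells seeded at 2,000/well, using four 3-fold compound dilutions from 10 mM stocks. RB^KO Kuramochi cells were run in parallel for specificity.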

[2] = biological target: CDK2/Cyclin E1(14-475) (Homo sapiens, UniProt P24941); assay: Caliper LabChip EZ Reader mobility shift assay, inhibition of CDK2/Cyclin E1 activity; format: biochemical; conditions: class symbols A-D
Method in brief: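 Mobility-shift readout of fluorescent peptide (1.5 μM final) phosphorylation by 2.5 nM CDK2/Cyclin E1(14-475) at 100 μM ATP, pH 7.5. Compounds pre-incubated 30 min with enzyme before substrate addition; 100-min reaction halted by EDTA, normalized % activity fitted to four-parameter curve for IC50.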

| SMILES | IC50 [1] [µM] | IC50 [2] [µM] |
| --- | --- | --- |
| CNC(=O)[C@@H](CCCC(C)(C)C)NC(=O)C1CN(C(=O)Cc2c[nH]c3cc(Cl)ccc23)CC2CN(C(=O)c3ccc(OC(C)C)c(OC)c3)CC21 (some centres unmarked) [I-95] | > 10 | 0.5 to 5 |
| CNC(=O)[C@H](CCCC(C)C)NC(=O)C1CN(C(=O)Cc2c[nH]c3cc(Cl)ccc23)CC2CN(C(=O)c3ccc(OC(C)C)c(OC)c3)CC21 (some centres unmarked) [I-97] | > 10 | 0.5 to 5 |
| COc1cc(C(=O)N2CC3CN(C(=O)Cc4c[nH]c5cc(Cl)ccc45)CC(C(=O)N[C@@H](C)C(=O)NCCCc4ccccc4)C3C2)ccc1OC(C)C (some centres unmarked) [I-98] | > 10 | 0.5 to 5 |
| COc1cc(C(=O)N2CC3CN(C(=O)Cc4c[nH]c5cc(Cl)ccc45)CC(C(=O)NCC(=O)NCCCc4ccccc4)C3C2)ccc1OC(C)C (centres unmarked) [I-99] | > 10 | 0.5 to 5 |
| CNC(=O)[C@@H](NC(=O)C1CN(C(=O)Cc2c[nH]c3cc(Cl)ccc23)CC2CN(C(=O)c3ccc(OC(C)C)c(OC)c3)CC21)[C@@H](C)OCc1ccccc1 (some centres unmarked) [I-102] | > 10 | 0.5 to 5 |
| COc1cc(C(=O)N2CC3CN(C(=O)Cc4c[nH]c5cc(Cl)ccc45)CC(C(=O)N[C@@H](C)C(=O)N(C)CCCc4ccccc4)C3C2)ccc1OC(C)C (some centres unmarked) [I-103] | > 10 | 0.5 to 5 |
| CNC(=O)[C@@H](CCCC1CCC(C(F)(F)F)CC1)NC(=O)C1CN(C(=O)Cc2c[nH]c3cc(Cl)ccc23)CC2CN(C(=O)c3ccc(OC(C)C)c(OC)c3)CC21 (some centres unmarked) [I-104] | > 10 | > 10 |
| CNC(=O)[C@H](NC(=O)C1CN(C(=O)Cc2c[nH]c3cc(Cl)ccc23)CC2CN(C(=O)c3ccc(OC(C)C)c(OC)c3)CC21)[C@H](C)OCc1ccccc1 (some centres unmarked) [I-105] | > 10 | > 10 |
| CNC(=O)[C@@H](NC(=O)C1CN(C(=O)Cc2c[nH]c3cc(Cl)ccc23)CC2CN(C(=O)c3ccc(OC(C)C)c(OC)c3)CC21)[C@H](C)OCC1CCCCC1 (some centres unmarked) [I-107] | 0.5 to 5 | ≤ 0.5 |
| CNC(=O)[C@H](NC(=O)C1CN(C(=O)Cc2c[nH]c3cc(Cl)ccc23)CC2CN(C(=O)c3ccc(OC(C)C)c(OC)c3)CC21)[C@@H](C)OCC1CCCCC1 (some centres unmarked) [I-108] | > 10 | > 10 |
| COc1cc(C(=O)N2CC3CN(C(=O)Cc4c[nH]c5cc(Cl)ccc45)CC(C(=O)N[C@@H](CCCc4ccccc4)C(N)=O)C3C2)ccc1OC(C)C (some centres unmarked) [I-109] | > 10 | 0.5 to 5 |
| CNC(=O)[C@@H](CCCC1CCCCC1)NC(=O)C1CN(C(=O)Cc2c[nH]c3cc(Cl)ccc23)CC2CN(C(=O)c3ccc(OC(C)C)c(OC)c3)CC21 (some centres unmarked) [I-112] | > 10 | 5 to 10 |
| CNC(=O)[C@H](CCCC1CCCCC1)NC(=O)C1CN(C(=O)Cc2c[nH]c3cc(Cl)ccc23)CC2CN(C(=O)c3ccc(OC(C)C)c(OC)c3)CC21 (some centres unmarked) [I-113] | > 10 | 0.5 to 5 |
| CNC(=O)[C@@H](CCCC(C)C)NC(=O)C1CN(C(=O)Cc2c[nH]c3cc(Cl)ccc23)CC2CN(C(=O)c3ccc(OC(C)C)c(OC)c3)CC21 (some centres unmarked) [I-114] | > 10 | > 10 |
| CNC(=O)[C@H](CCCc1ccc(O)cc1)NC(=O)C1CN(C(=O)Cc2c[nH]c3cc(Cl)ccc23)CC2CN(C(=O)c3ccc(OC(C)C)c(OC)c3)CC21 (some centres unmarked) [I-115] | > 10 | 5 to 10 |
| CNC(=O)[C@H](CCCC1CCC(O)CC1)NC(=O)C1CN(C(=O)Cc2c[nH]c3cc(Cl)ccc23)CC2CN(C(=O)c3ccc(OC(C)C)c(OC)c3)CC21 (some centres unmarked) [I-116] | > 10 | > 10 |
| CNC(=O)[C@H](CCCc1cccnc1)NC(=O)C1CN(C(=O)Cc2c[nH]c3cc(Cl)ccc23)CC2CN(C(=O)c3ccc(OC(C)C)c(OC)c3)CC21 (some centres unmarked) [I-126] | > 10 | 0.5 to 5 |

| SMILES | IC50 [1] [µM] | IC50 [2] [µM] |
| --- | --- | --- |
| CNC(=O)[C@H](CCCc1ccccc1O)NC(=O)C1CN(C(=O)Cc2c[nH]c3cc(Cl)ccc23)CC2CN(C(=O)c3ccc(OC(C)C)c(OC)c3)CC21 (some centres unmarked) [I-127] | > 10 | 0.5 to 5 |
| CNC(=O)[C@H](CCCc1cccc(O)c1)NC(=O)C1CN(C(=O)Cc2c[nH]c3cc(Cl)ccc23)CC2CN(C(=O)c3ccc(OC(C)C)c(OC)c3)CC21 (some centres unmarked) [I-128] | 0.5 to 5 | 5 to 10 |
| CNC(=O)[C@H](NC(=O)C1CN(C(=O)Cc2c[nH]c3cc(Cl)ccc23)CC2CN(C(=O)c3ccc(OC(C)C)c(OC)c3)CC21)[C@H](C)OCC1CCCCC1 (some centres unmarked) [I-129] | > 10 | > 10 |
| CNC(=O)[C@H](CCCC1CCOCC1)NC(=O)C1CN(C(=O)Cc2c[nH]c3cc(Cl)ccc23)CC2CN(C(=O)c3ccc(OC(C)C)c(OC)c3)CC21 (some centres unmarked) [I-130] | > 10 | 0.5 to 5 |
| CNC(=O)[C@@H](CCCC1CCOCC1)NC(=O)C1CN(C(=O)Cc2c[nH]c3cc(Cl)ccc23)CC2CN(C(=O)c3ccc(OC(C)C)c(OC)c3)CC21 (some centres unmarked) [I-131] | 0.5 to 5 | 5 to 10 |
| CNC(=O)[C@@H](CCCC1CCCC1)NC(=O)C1CN(C(=O)Cc2c[nH]c3cc(Cl)ccc23)CC2CN(C(=O)c3ccc(OC(C)C)c(OC)c3)CC21 (some centres unmarked) [I-132] | > 10 | 0.5 to 5 |
| CNC(=O)[C@H](CCCc1ccc(C(F)(F)F)cc1)NC(=O)C1CN(C(=O)Cc2c[nH]c3cc(Cl)ccc23)CC2CN(C(=O)c3ccc(OC(C)C)c(OC)c3)CC21 (some centres unmarked) [I-133] | > 10 | 0.5 to 5 |
| CNC(=O)[C@@H](CCCc1ccc(C(F)(F)F)cc1)NC(=O)C1CN(C(=O)Cc2c[nH]c3cc(Cl)ccc23)CC2CN(C(=O)c3ccc(OC(C)C)c(OC)c3)CC21 (some centres unmarked) [I-134] | > 10 | > 10 |
| CNC(=O)C(NC(=O)C1CN(C(=O)Cc2c[nH]c3cc(Cl)ccc23)CC2CN(C(=O)c3ccc(OC(C)C)c(OC)c3)CC21)[C@@H](C)OCC1CCCCC1 (some centres unmarked) [I-135] | 0.5 to 5 | ≤ 0.5 |
| CNC(=O)[C@H](C/C=C/c1ccccc1)NC(=O)C1CN(C(=O)Cc2c[nH]c3cc(Cl)ccc23)CC2CN(C(=O)c3ccc(OC(C)C)c(OC)c3)CC21 (some centres unmarked) [I-136] | > 10 | 0.5 to 5 |
| CNC(=O)[C@H](CC#Cc1ccccc1)NC(=O)C1CN(C(=O)Cc2c[nH]c3cc(Cl)ccc23)CC2CN(C(=O)c3ccc(OC(C)C)c(OC)c3)CC21 (some centres unmarked) [I-137] | > 10 | > 10 |
| CNC(=O)[C@H](CCCc1ccncc1)NC(=O)C1CN(C(=O)Cc2c[nH]c3cc(Cl)ccc23)CC2CN(C(=O)c3ccc(OC(C)C)c(OC)c3)CC21 (some centres unmarked) [I-138] | > 10 | > 10 |
| CNC(=O)[C@H](CCCc1cccc2[nH]nnc12)NC(=O)C1CN(C(=O)Cc2c[nH]c3cc(Cl)ccc23)CC2CN(C(=O)c3ccc(OC(C)C)c(OC)c3)CC21 (some centres unmarked) [I-139] | > 10 | 0.5 to 5 |
| CNC(=O)[C@H](CCCC1CCCCCC1)NC(=O)C1CN(C(=O)Cc2c[nH]c3cc(Cl)ccc23)CC2CN(C(=O)c3ccc(OC(C)C)c(OC)c3)CC21 (some centres unmarked) [I-140] | > 10 | 0.5 to 5 |
| CNC(=O)[C@@H](CCCC1CCCCCC1)NC(=O)C1CN(C(=O)Cc2c[nH]c3cc(Cl)ccc23)CC2CN(C(=O)c3ccc(OC(C)C)c(OC)c3)CC21 (some centres unmarked) [I-141] | 5 to 10 | > 10 |
| CNC(=O)[C@@H](CCCC1CCC(O)CC1)NC(=O)C1CN(C(=O)Cc2c[nH]c3cc(Cl)ccc23)CC2CN(C(=O)c3ccc(OC(C)C)c(OC)c3)CC21 (some centres unmarked) [I-142] | > 10 | > 10 |
| CNC(=O)[C@H](CCCc1ccc2[nH]nnc2c1)NC(=O)C1CN(C(=O)Cc2c[nH]c3cc(Cl)ccc23)CC2CN(C(=O)c3ccc(OC(C)C)c(OC)c3)CC21 (some centres unmarked) [I-143] | > 10 | > 10 |
